Test results reported in article PMC9516332 (Frontiers in Oncology, 2022).
Like-named read-outs stand apart in the source and are kept apart here.

Tests used:
[1] = system: 134 cancer cell lines; experiment: Cell viability assay (ATPlite, 72 hours), IC50 on cancer cell line panel
[2] = target: T1, panel of 255 wild-type kinases (Homo sapiens, UniProt P15735); settings: kinase PHKG2; 1 µmol/L single concentration; ref DOI: 10.1158/1535-7163.MCT-18-0877; cited from earlier work
T1 sequence (P15735 1-406): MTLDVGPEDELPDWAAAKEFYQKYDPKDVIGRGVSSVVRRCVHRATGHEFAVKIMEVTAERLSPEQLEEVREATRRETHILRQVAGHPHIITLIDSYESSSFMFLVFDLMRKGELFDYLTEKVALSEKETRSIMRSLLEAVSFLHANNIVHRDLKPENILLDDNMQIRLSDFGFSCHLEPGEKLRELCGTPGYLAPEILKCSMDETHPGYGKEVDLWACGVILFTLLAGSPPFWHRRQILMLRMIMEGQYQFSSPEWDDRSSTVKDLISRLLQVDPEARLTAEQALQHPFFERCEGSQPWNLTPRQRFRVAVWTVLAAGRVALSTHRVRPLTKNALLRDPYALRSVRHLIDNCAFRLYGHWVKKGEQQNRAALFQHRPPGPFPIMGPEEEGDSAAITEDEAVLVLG

Cc1cc(Nc2ncc(Cl)c(Nc3ccccc3S(=O)(=O)C(C)C)n2)c(OC(C)C)cc1C1CCNCC1 [ceritinib]
IC50 ([1]; Homo sapiens, MV4-11, read-out: IC50 in cell proliferation assay, MV4-11 cell line (FLT3 ITD)): 1230 nM
IC50 ([1]; Homo sapiens, MeWo, read-out: IC50 in cell proliferation assay, MeWo cell line): 3200 nM
IC50 ([1]; Homo sapiens, NCCIT, read-out: IC50 in cell proliferation assay, NCC-IT cell line): 3110 nM
IC50 ([1]; Homo sapiens, NCI-H82, read-out: IC50 in cell proliferation assay, cell line NCI-H82): 1570 nM
IC50 ([1]; Homo sapiens, NCI-H460, read-out: IC50 in cell proliferation assay, NCI-H460 cell line): 3160 nM
IC50 ([1]; Homo sapiens, NCI-H661, read-out: IC50 in cell proliferation assay, NCI-H661 cell line): 3470 nM
IC50 ([1]; Homo sapiens, NCI-H716, read-out: IC50 in cell proliferation assay, cell line NCI-H716 (FGFR2-COL14A1)): 1550 nM
IC50 ([1]; Homo sapiens, NCI-H1650, read-out: IC50 in cell proliferation assay, NCI-H1650 cell line (EGFR exon19del)): 3380 nM
IC50 ([1]; Homo sapiens, NCI-H1975, read-out: IC50 in cell proliferation assay, NCI-H1975 cell line (EGFR p.L858R + p.T790M)): 1920 nM
IC50 ([1]; Homo sapiens, NCI-H2228, read-out: IC50 in cell proliferation assay, NCI-H2228 cell line (EML4-ALK)): 38 nM
IC50 ([1]; Homo sapiens, OVCAR-3, read-out: IC50 in cell proliferation assay, cell line OVCAR-3): 5140 nM
IC50 ([1]; Homo sapiens, PFSK-1, read-out: IC50 in cell proliferation assay, cell line PFSK-1): 1540 nM
IC50 ([1]; Homo sapiens, RL95-2, read-out: IC50 in cell proliferation assay, cell line RL95-2 (EGFR p.A289V)): 1760 nM
IC50 ([1]; Homo sapiens, RPMI-7951, read-out: IC50 in cell proliferation assay, cell line RPMI-7951 (BRAF p.V600E)): 3680 nM
IC50 ([1]; Homo sapiens, RS4-11, read-out: IC50 in cell proliferation assay, cell line RS4;11): 1080 nM
IC50 ([1]; Homo sapiens, Rec1, read-out: IC50 in cell proliferation assay, cell line REC-1): 2210 nM
IC50 ([1]; Homo sapiens, SHP77, read-out: IC50 in cell proliferation assay, cell line SHP-77): 3400 nM
IC50 ([1]; Homo sapiens, SK-BR-3, read-out: IC50 in cell proliferation assay, cell line SK-BR-3 (ERBB2 amplification)): 3910 nM
IC50 ([1]; Homo sapiens, SK-N-AS, read-out: IC50 in cell proliferation assay, cell line SK-N-AS): 2090 nM
IC50 ([1]; Homo sapiens, SK-N-FI, read-out: IC50 in cell proliferation assay, cell line SK-N-FI): 537 nM
IC50 ([1]; Homo sapiens, SK-N-MC, read-out: IC50 in cell proliferation assay, cell line SK-N-MC): 709 nM
IC50 ([1]; Homo sapiens, SK-N-SH, read-out: IC50 in cell proliferation assay, cell line SK-N-SH (ALK p.F1174L)): 875 nM
IC50 ([1]; Homo sapiens, SNU-5, read-out: IC50 in cell proliferation assay, cell line SNU-5 (MET amplification)): 3870 nM
IC50 ([1]; Homo sapiens, SNU-16, read-out: IC50 in cell proliferation assay, cell line SNU-16 (FGFR2 amplification)): 3800 nM
IC50 ([1]; Homo sapiens, SNU-C2B, read-out: IC50 in cell proliferation assay, cell line SNU-C2B (EGFR p.R165Q)): 2540 nM
IC50 ([1]; Homo sapiens, SU-DHL-1, read-out: IC50 in cell proliferation assay, cell line SU-DHL-1 (NPM1-ALK)): 192 nM
IC50 ([1]; Homo sapiens, SU-DHL-6, read-out: IC50 in cell proliferation assay, cell line SU-DHL-6): 2950 nM
IC50 ([1]; Homo sapiens, SUP-T1, read-out: IC50 in cell proliferation assay, cell line SUP-T1): 3500 nM
IC50 ([1]; Homo sapiens, SW48, read-out: IC50 in cell proliferation assay, cell line SW48 (EGFR p.G719S)): 1290 nM
IC50 ([1]; Homo sapiens, SW480, read-out: IC50 in cell proliferation assay, cell line SW480): 2440 nM
IC50 ([1]; Homo sapiens, SW626, read-out: IC50 in cell proliferation assay, cell line SW626): 3430 nM
IC50 ([1]; Homo sapiens, SW780, read-out: IC50 in cell proliferation assay, cell line SW780 (FGFR3-BAIAP2L1)): 2070 nM
IC50 ([1]; Homo sapiens, SW837, read-out: IC50 in cell proliferation assay, cell line SW837): 2940 nM
IC50 ([1]; Homo sapiens, SW872, read-out: IC50 in cell proliferation assay, cell line SW872 (BRAF p.V600E)): 2780 nM
IC50 ([1]; Homo sapiens, SW900, read-out: IC50 in cell proliferation assay, cell line SW900): 2340 nM
IC50 ([1]; Homo sapiens, SW948, read-out: IC50 in cell proliferation assay, cell line SW948): 2280 nM
IC50 ([1]; Homo sapiens, SW982, read-out: IC50 in cell proliferation assay, cell line SW982 (BRAF p.V600E)): 4150 nM
IC50 ([1]; Homo sapiens, SW-620, read-out: IC50 in cell proliferation assay, cell line SW620): 1560 nM
IC50 ([1]; Homo sapiens, T98G, read-out: IC50 in cell proliferation assay, cell line T98G): 4700 nM
IC50 ([1]; Homo sapiens, TCC-SUP, read-out: IC50 in cell proliferation assay, cell line TCCSUP): 3820 nM
IC50 ([1]; Homo sapiens, THP-1, read-out: IC50 in cell proliferation assay, cell line THP-1): 4760 nM
IC50 ([1]; Homo sapiens, U2OS, read-out: IC50 in cell proliferation assay, cell line U2OS): 3860 nM
IC50 ([1]; Homo sapiens, U-87 MG, read-out: IC50 in cell proliferation assay, cell line U-87MG ATCC): 4440 nM
IC50 ([1]; Homo sapiens, U-118-MG, read-out: IC50 in cell proliferation assay, cell line U-118MG): 3850 nM
IC50 ([1]; Homo sapiens, UMUC3, read-out: IC50 in cell proliferation assay, cell line UM-UC-3): 2570 nM
IC50 ([1]; Hs766T, read-out: IC50 in cell proliferation assay, Hs 766T cell line): 3520 nM
IC50 ([1]; L-82, read-out: IC50 in cell proliferation assay, L-82 cell line (NPM1-ALK)): 33 nM
IC50 ([1]; Rh30, read-out: IC50 in cell proliferation assay, cell line Rh30): 1010 nM
IC50 ([1]; read-out: IC50 in cell proliferation assay, 11-18 cell line (EGFR p.L858R)): 2090 nM
IC50 ([1]; read-out: IC50 in cell proliferation assay, Hs 852.T cell line): 1870 nM
IC50 ([1]; read-out: IC50 in cell proliferation assay, JAR cell line): 3580 nM
IC50 ([1]; read-out: IC50 in cell proliferation assay, cell line 5637): 2490 nM
IC50 ([1]; read-out: IC50 in cell proliferation assay, cell line A-388): 3640 nM
IC50 ([1]; read-out: IC50 in cell proliferation assay, cell line DB): 3990 nM
IC50 ([1]; read-out: IC50 in cell proliferation assay, cell line DEL (NPM1-ALK)): 62 nM
IC50 ([1]; read-out: IC50 in cell proliferation assay, cell line ES-2 (BRAF p.V600E)): 2810 nM
IC50 ([1]; read-out: IC50 in cell proliferation assay, cell line PA-1): 2080 nM
IC50 ([1]; read-out: IC50 in cell proliferation assay, cell line PC-3): 4060 nM
IC50 ([1]; read-out: IC50 in cell proliferation assay, cell line RD): 1710 nM
IC50 ([1]; read-out: IC50 in cell proliferation assay, cell line RKO (BRAF p.V600E)): 1630 nM
IC50 ([1]; read-out: IC50 in cell proliferation assay, cell line RL): 4060 nM
IC50 ([1]; read-out: IC50 in cell proliferation assay, cell line RT-4 (FGFR3-TACC3)): 4050 nM
IC50 ([1]; read-out: IC50 in cell proliferation assay, cell line SR (NPM1-ALK)): 200 nM
IC50 ([1]; read-out: IC50 in cell proliferation assay, cell line T24): 4040 nM
IC50 ([1]; read-out: IC50 in cell proliferation assay, cell line TT (RET p.C634W)): 3830 nM
IC50 ([1]; read-out: IC50 in cell proliferation assay, cell line VA-ES-BJ): 4250 nM
%-inhibition at 1 µmol/L, PHKG2 [2]: 83%
